Source: ChEMBL document CHEMBL5724914, “Linking interpersonal differences in gut microbiota composition and drug biotransformation activity” (2024)

Columns and labels:
[1] = human gut metagenome, 24 h, 2 µM
[2] = The drug is tested on WLS-069 corresponding to human gut metagenome with ENA study accession number: PRJEB37062 and ENA sample accession number: ERS12561748 for biotransformation under anaerobic condition. The drug concentrations were measured over 9 timepoints collected between 0 and 24 hours of incubation by liquid-chromatography-coupled mass spectrometry (LC–MS); settings: 2 µM
[3] = human gut metagenome, 24 h, 2 µM; remark: listed apart in the source
[4] = human gut metagenome, 24 h, 2 µM; remark: listed apart in the source
[5] = human gut metagenome, 24 h, 2 µM; remark: listed apart in the source
[6] = The drug is tested on WLS-010 corresponding to human gut metagenome with ENA study accession number: PRJEB37062 and ENA sample accession number: ERS12561743 for biotransformation under anaerobic condition. The drug concentrations were measured over 9 timepoints collected between 0 and 24 hours of incubation by liquid-chromatography-coupled mass spectrometry (LC–MS); settings: 2 µM
[7] = The drug is tested on WLS-098 corresponding to human gut metagenome with ENA study accession number: PRJEB37062 and ENA sample accession number: ERS12561754 for biotransformation under anaerobic condition. The drug concentrations were measured over 9 timepoints collected between 0 and 24 hours of incubation by liquid-chromatography-coupled mass spectrometry (LC–MS); settings: 2 µM
[8] = human gut metagenome, 24 h, 2 µM; remark: listed apart in the source
[9] = human gut metagenome, 24 h, 2 µM; remark: listed apart in the source
[10] = The drug is tested on WLS-006 corresponding to human gut metagenome with ENA study accession number: PRJEB37062 and ENA sample accession number: ERS12561741 for biotransformation under anaerobic condition. The drug concentrations were measured over 9 timepoints collected between 0 and 24 hours of incubation by liquid-chromatography-coupled mass spectrometry (LC–MS); settings: 2 µM
[11] = human gut metagenome, 24 h, 2 µM; remark: listed apart in the source
[12] = The drug is tested on WLS-077 corresponding to human gut metagenome with ENA study accession number: PRJEB37062 and ENA sample accession number: ERS12561750 for biotransformation under anaerobic condition. The drug concentrations were measured over 9 timepoints collected between 0 and 24 hours of incubation by liquid-chromatography-coupled mass spectrometry (LC–MS); settings: 2 µM
[13] = human gut metagenome, 24 h, 2 µM; remark: listed apart in the source
Also: call rule not given here.

Row | SMILES | Bacterial Biotransformation [1] | Bacterial Biotransformation [2] | Bacterial Biotransformation [3] | Bacterial Biotransformation [4] | Bacterial Biotransformation [5] | Bacterial Biotransformation [6] | Bacterial Biotransformation [7] | Bacterial Biotransformation [8] | Bacterial Biotransformation [9] | Bacterial Biotransformation [10] | Bacterial Biotransformation [11] | Bacterial Biotransformation [12] | Bacterial Biotransformation [13]
1 | N#Cc1ccc2c(c1)N(CCCN1CCC(O)CC1)c1ccccc1S2 [PERICIAZINE] | Compound metabolized | Compound metabolized | Compound NOT metabolized | Compound metabolized | Compound NOT metabolized | Compound NOT metabolized | Compound metabolized | Compound NOT metabolized | Compound NOT metabolized | Compound NOT metabolized | Compound NOT metabolized | Compound NOT metabolized | Compound metabolized
2 | COCCCC/C(=N\OCCN)c1ccc(C(F)(F)F)cc1.O=C(O)/C=C\C(=O)O [FLUVOXAMINE MALEATE] | Compound NOT metabolized | Compound NOT metabolized | Compound NOT metabolized | Compound metabolized | Compound NOT metabolized | Compound NOT metabolized | Compound NOT metabolized | Compound metabolized | Compound NOT metabolized | Compound metabolized | Compound metabolized | Compound NOT metabolized | Compound NOT metabolized
3 | O=C([O-])C[C@H](O)C[C@H](O)/C=C/c1c(C2CC2)nc2ccccc2c1-c1ccc(F)cc1.O=C([O-])C[C@H](O)C[C@H](O)/C=C/c1c(C2CC2)nc2ccccc2c1-c1ccc(F)cc1.[Ca+2] [PITAVASTATIN CALCIUM] | Compound NOT metabolized | Compound metabolized | Compound NOT metabolized | Compound NOT metabolized | Compound metabolized | Compound metabolized | Compound metabolized | Compound NOT metabolized | Compound metabolized | Compound metabolized | Compound metabolized | Compound metabolized | Compound metabolized
4 | CC#CCn1c(N2CCC[C@@H](N)C2)nc2c1c(=O)n(Cc1nc(C)c3ccccc3n1)c(=O)n2C [LINAGLIPTIN] | Compound NOT metabolized | Compound NOT metabolized | Compound NOT metabolized | Compound NOT metabolized | Compound NOT metabolized | Compound NOT metabolized | Compound NOT metabolized | Compound NOT metabolized | Compound NOT metabolized |  | Compound NOT metabolized | Compound NOT metabolized | 
5 | CN1CCN(C2=Nc3ccccc3Oc3ccc(Cl)cc32)CC1.O=C(O)CCC(=O)O [LOXAPINE SUCCINATE] | Compound NOT metabolized | Compound NOT metabolized | Compound NOT metabolized | Compound NOT metabolized | Compound NOT metabolized | Compound NOT metabolized | Compound NOT metabolized | Compound NOT metabolized | Compound NOT metabolized | Compound NOT metabolized | Compound NOT metabolized | Compound NOT metabolized | Compound NOT metabolized
6 | CN(C)CCc1c[nH]c2ccc(CS(=O)(=O)N3CCCC3)cc12 [ALMOTRIPTAN] | Compound NOT metabolized | Compound NOT metabolized | Compound NOT metabolized | Compound metabolized | Compound NOT metabolized | Compound NOT metabolized | Compound metabolized | Compound NOT metabolized | Compound NOT metabolized | Compound NOT metabolized | Compound NOT metabolized | Compound NOT metabolized | Compound NOT metabolized
7 | CCOC(=O)C1=C(C)NC(C)=C(C(=O)OC)C1c1cccc([N+](=O)[O-])c1 (configuration not stated) [NITRENDIPINE] | Compound metabolized | Compound metabolized |  | Compound metabolized | Compound metabolized | Compound metabolized | Compound metabolized | Compound metabolized | Compound metabolized | Compound metabolized | Compound metabolized | Compound metabolized | Compound metabolized
8 | Cc1nc(Nc2ncc(C(=O)Nc3c(C)cccc3Cl)s2)cc(N2CCN(CCO)CC2)n1 [DASATINIB ANHYDROUS] | Compound NOT metabolized | Compound NOT metabolized | Compound NOT metabolized | Compound metabolized | Compound NOT metabolized | Compound metabolized | Compound metabolized | Compound metabolized | Compound NOT metabolized | Compound metabolized | Compound metabolized | Compound NOT metabolized | Compound NOT metabolized
9 | CC(=O)Oc1ccc(C(c2ccc(OC(C)=O)cc2)c2ccccn2)cc1 [BISACODYL] | Compound metabolized | Compound metabolized | Compound metabolized | Compound metabolized | Compound metabolized | Compound metabolized | Compound metabolized | Compound metabolized | Compound metabolized | Compound metabolized | Compound metabolized | Compound metabolized | Compound metabolized
10 | CNCC[C@H](Oc1cccc2ccccc12)c1cccs1 [DULOXETINE] | Compound NOT metabolized | Compound NOT metabolized | Compound NOT metabolized | Compound metabolized | Compound NOT metabolized | Compound NOT metabolized | Compound metabolized | Compound NOT metabolized | Compound NOT metabolized | Compound metabolized | Compound NOT metabolized | Compound NOT metabolized | Compound NOT metabolized
